Source: patent publication EP3454821B1, “MICELLES OF D-ALPHA-TOCOPHERYL POLYETHYLENE GLYCOL 1000 SUCCINATE” (Phytoceutical Limited, priority 2016, dated 2017)
Entries after “also recorded” stand apart in the source; their conditions may differ.

Assay: Dissolution of Retinol in water
Type: physicochemical
Conditions: without TPGS
Source text: All attempts to dissolve Retinol in water were unsuccessful except when using a micellar formulation with TPGS, as per the method described in Example 1.
Retinol. No research was undertaken on Objective 2 because Retinol is insoluble in water.

SMILES: CC1=C(/C=C/C(C)=C/C=C/C(C)=C/CO)C(C)(C)CCC1 [Retinol]
- solubility in water: insoluble; also recorded: unsuccessful
